Data from US20170226507A1, “COORDINATE CONTROL OF PATHOGENIC SIGNALING BY THE MIR-130/301 FAMILY IN PULMONARY HYPERTENSION AND FIBROPROLIFERATIVE DISEASES” (The Brigham and Women's Hospital, Inc., priority 2014, published 2017).

Assays:
Format in all cases: cell-based, human
STAT3 = STAT3 phosphorylation in PASMCs (conditioned media from PAECs or endothelin-1; immunoblot); conditions: conditioned media from transfected PAECs (mimic: normoxic, tiny-LNA: hypoxic conditioning)
Method: (§1) (FIG. 40A) A schematic diagram of co-culture experiments: conditioned media from transfected PAECs (miRNA, anti-miRNA, tiny-LNA or siRNA under normoxic or hypoxic conditions) were filtered and applied onto naïve PASMCs cultured in matrigel. At specific times, PASMCs or PASMC-matrigel cultures were arrested and analyzed for STAT3 activation (phosphorylation) or contraction, respectively.
(§2) 50000 PASMC were embedded in 100 ul of matrix gel as previous described (Gagiolli et al) and plated into well of a 96 well plate. After 1 h at 37° C., these matrices were overlaid with 100 ul of conditioned PAECs serum-free medium (transfected with siRNA, miRNA or anti-miRNA and supplemented with Ambriesentan 10 uM). Every 12 h, medium was changed and at day 4 the gels were photographed and the relative diameter of the well and the gel were measured using ImageJ. The percentage contraction was calculated using the formula 100*(well diameter−gel diamter)/well diameter. For the co-culture experiment, conditioned media from PAEC transfected as indicated were applied on PASMCs or Fibroblast previously starved (24 h). Cells were collected at different time and analyzed by western blotting.
(§3) Cells were lysed in RIPA buffer (Santa Cruz Biotechnology) and the protein concentration determined using a Bradford assay (Biorad). Protein lysate ([…]) were resolved by SDS-PAGE and transferred onto a PVDF membrane (Biorad). Membranes were blocked in 5% non-fat milk in TN buffer (50 mM Tris-HCl pH 7.4, 150 mM NaCl) and incubated in the presence of the primary and then secondary antibodies. After washing in TN buffer containing 0.1% Tween, immunoreactive bands were visualized with the ECL system (Amersham Biosciences). […] Primary antibodies for STAT3 (#9139) and P-STAT3 (Tyr-705; #9145) were purchased from Cell Signaling. Primary antibodies against actin (ab 3280), was obtained from Abcam. Appropriate secondary antibodies (anti-rabbit and anti-mouse) coupled to HRP were used (Santa Cruz Biotechnology).

PASMCs [1] = test: Contraction assay of PASMCs in matrigel; conditions: conditioned media from transfected PAECs; rosiglitazone in PAECs; ambrisentan on PASMCs
Method: as §1, §2

PASMCs [2] = test: Proliferation of PASMCs (cell counting, BrdU incorporation, PCNA)
Excerpt: Pre-miRNA oligonucleotides (pre-miR-130a, pre-miR-204, pre-miR-424, and pre-miR-503 and negative control pre-miR-NC1 and premiR-NC2, Life Technologies), anti-miRNAs oligonucleotides (anti-miR-130a and anti-miR-NC, ThermoScientific), tiny LNA oligonucleotides (tiny-130: 5′-[…]-3′ (SEQ ID NO: 3), and tiny-NC 5′-[…]-3′ (SEQ ID NO: 51), Exiqon), siRNAs (PPARγ and scrambled control, Santa Cruz Biotechnology; HIF-1α, HIF-2α, and scrambled control, Life Technologies) were commercially purchased. PAECs and PASMCs were plated and transfected 24 h later at 70-80% confluence using pre-miRNA (5 nM), anti-miRNA (20 nM), tiny-LNA (20 nM) or siRNA (25 nM) with Lipofectamine 2000 reagent (Life Technologies), according to the manufacturers' instructions.
Exponentially growing cells were transfected, collected at the indicated times and counted.
as §3, with “3280), α-smooth-muscle-actin (ab 32575), CD31 (ab28364), and PCNA (ab 29) were” for “3280), was”

tiny-LNA-130: fully LNA-modified tiny LNA oligonucleotide 5′-ATTGCACT-3′ (SEQ ID NO: 3) complementary to the seed region of the miR-130/301 family (all LNA, backbone and methylation of C not given here)
STAT3 phosphorylation in PASMCs (STAT3): abrogated
actinomyosin contraction of PASMCs (PASMCs [1]): abrogated
number of cells (PASMCs [2]; counted each day during 3 days): greater decrease in the number of cells compared with anti-miR-130a
BrdU incorporation (proliferation) (PASMCs [2]; exponentially growing, BrdU pulse 1 h): greater decrease in proliferation compared with anti-miR-130a
PCNA expression (PASMCs [2]; immunoblot 48 hours after transfection): more substantial decrease
